Patent EP4782453A1 (Beyang Therapeutics Co., Ltd., priority 2023, dated 2025)

biological target: T1, Menin-MLL (Homo sapiens, UniProt O00255); assay: Inhibitory activity against Menin-MLL binding (fluorescence polarization); conditions: Menin-MLL IC50, fluorescence polarization; 150 nM His-Menin, 15 nM FITC-MLL; 25°C for 60 min
T1 construct: His-Menin (M1-L615 end); purchased BIORTUS BP9210
T1 sequence (O00255 1-615 isoform O00255-1): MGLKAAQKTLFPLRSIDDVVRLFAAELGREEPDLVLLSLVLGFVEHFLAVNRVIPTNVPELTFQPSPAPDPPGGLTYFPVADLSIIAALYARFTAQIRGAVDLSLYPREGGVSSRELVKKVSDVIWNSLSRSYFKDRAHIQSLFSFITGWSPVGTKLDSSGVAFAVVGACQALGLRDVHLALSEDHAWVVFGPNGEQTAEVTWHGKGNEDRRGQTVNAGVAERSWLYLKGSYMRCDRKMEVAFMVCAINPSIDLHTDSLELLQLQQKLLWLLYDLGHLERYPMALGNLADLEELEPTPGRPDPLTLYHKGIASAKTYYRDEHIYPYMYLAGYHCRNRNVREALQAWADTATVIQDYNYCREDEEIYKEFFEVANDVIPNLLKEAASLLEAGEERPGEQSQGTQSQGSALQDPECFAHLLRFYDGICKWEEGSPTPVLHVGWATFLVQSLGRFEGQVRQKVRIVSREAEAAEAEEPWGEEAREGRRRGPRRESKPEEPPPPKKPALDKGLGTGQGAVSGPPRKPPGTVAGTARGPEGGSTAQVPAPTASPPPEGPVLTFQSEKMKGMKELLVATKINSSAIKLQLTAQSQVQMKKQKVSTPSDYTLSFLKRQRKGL
Procedure, shortened: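 Fluorescence polarization competition: compound and 150 nM His-tagged menin (residues M1-L615) sit 15 min at 25 °C in pH 7.5 HEPES buffer with NaCl, DTT and BSA; 15 nM FITC-labelled MLL peptide then binds for 60 min. IC50 fitted sigmoidally from mP values, duplicate wells.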

Row | Compound | IC50 [nM]
1 | CNC(=O)[C@H]1CC[C@H](CN2CC(c3cc(-c4ccc(F)cc4C(=O)N4CCOC[C@H]4C)c4c(F)nc(C)n4c3)C2)CC1 [Example 237, (1r,4r)-4-{[3-(1-fluoro-8-{4-fluoro-2-[(3R)-3-methylmorpholin-4-carbonyl]phenyl}-3-methylimidazo[1,5-a]pyridin-6-yl)azacyclobutan-1-yl]methyl}-N-methylcyclohexan-1-formamide] | 34
2 | CCN(C(=O)c1cc(F)ccc1-n1c(=O)n(CC2CN(C(CCCN3CCN(CCO)CC3)C(C)C)C2)c2c(C)cncc21)C(C)C (stereo not shown) [Example 415, N-ethyl-5-fluoro-2-{1-[(1-{6-[4-(2-hydroxyethyl)piperazin-1-yl]-2-methylhexan-3-yl}azacyclobutan-3-yl)methyl]-7-methyl-2-oxo-1H,2H,3H-imidazo[4,5-c]pyridin-3-yl} N-(isopropyl)benzamide] | 160
3 | CCN(C(=O)c1cc(F)ccc1-c1cc([C@@H]2CCN(C[C@]3(O)CC[C@@H](NS(=O)(=O)CC)CC3)C2)cc2c1cnn2C)C(C)C [Compound 55-2-1, N-ethyl-5-fluoro-2-[1-methyl-6-[(3S)-1-{[(1s,4s)-4-ethanesulfonamido-1-hydroxylcyclohexyl]methyl}pyrrolidin-3-yl]-1H-indazol-4-yl]-N-(isopropyl)benzamide] | 343
4 | CCN(C(=O)c1cc(F)ccc1-c1cc(C2CCN(C[C@]3(F)CC[C@H](NS(=O)(=O)CC)CC3)C2)cn2c(C)ncc12)C(C)C (stereo partly shown) [Compound 51, N-ethyl-5-fluoro-2-[3-methyl-6-(1-{[(1r,4r)-4-ethanesulfonamido-1-fluorocyclohexyl]methyl}pyrrolidin-3-yl)imidazo[1,5-a]pyridin-8-yl]-N-(isopropyl)benzamide] | 64

same assay, conditions: fluorescence polarization; 150 nM His-Menin, 15 nM FITC-MLL; 25°C for 60 min; read-out: Menin-MLL IC50

Row | IC50 [nM] | Compound
5 | 122 | CCN(C(=O)c1cc(F)ccc1-c1cc(C2CCN(CC3CCC(NS(=O)(=O)CC)CC3)C2)cn2c(C)nnc12)C(C)C (stereo not shown) [Example 80, 2-(6-{1-[(4-ethanesulfonamidocyclohexyl)methyl]pyrrolidin-3-yl}-3-methyl-[1,2,4]triazolo[4,3-a]pyridin-8-yl)-N-ethyl-5-fluoro-N-(isopropyl)benzamide]
6 | 20 | CCN(C(=O)c1cc(F)ccc1-c1cc(C2CN([C@H](C)C3CCN(C(=O)NC)CC3)C2)cn2c(C)nc(F)c12)C(C)C [Example 283-1]
7 | 80 | CCN(C(=O)c1cc(F)ccc1-c1cc(C2CN([C@@H](CCCN3CCN(C(=O)OC(C)(C)C)CC3)C(C)C)C2)cn2c(C)ncc12)C(C)C [Example 454-2, 4-[(4S)-4-[3-(8-{2-[ethyl(isopropyl)aminoformyl]-4-fluorophenyl}-3-methylimidazo[1,5-a]pyridin-6-yl)azacyclobutan-1-yl]-5-methylhexyl]piperazin-1-tert-butyl carboxylate]
8 | 58 | Cc1nc(F)c2c(-c3ccc(F)cc3C(=O)N3CCOC[C@H]3C)cc(C3CN([C@@H](CC[C@@H]4CNCCO4)C(C)C)C3)cn12 [Example 245-2, (3R)-4-[5-fluoro-2-(1-fluoro-3-methyl-6-{1-[(3S)-4-methyl-1-[(2R)-morpholin-2-yl]pentan-3-yl]azacyclobutan-3-yl}imidazo[1,5-a]pyridin-8yl)benzoyl]-3-methylmorpholine]
9 | 124 | CCN(C(=O)c1cc(F)ccc1-c1cc(N2CCN(CC3CCCCC3)CC2)cn2c(C)ncc12)C(C)C [Compound 58, 2-{6-[4-(cyclohexylmethyl)piperazin-1-yl]-3-methylimidazo[1,5-a]pyridin-8-yl}-N-ethyl-5-fluoro-N-(isopropyl)benzamide]
10 | 3.2 | CCN1CCN(CCC[C@H](C(C)C)N2CC(c3cc(-c4ccc(F)cc4C(=O)N(CC)C(C)C)c4cnn(C)c4c3)C2)CC1 [Example 394-2, N-ethyl-2-(6-{1-[(3R)-6-(4-ethylpiperazin-1-yl)-2-methylhexan-3-yl]azacyclobutan-3-yl}-1-methyl-1H-indazol-4-yl)-5-fluoro-N-(isopropyl)benzamide]
11 | 165 | CCN(C(=O)c1cc(F)ccc1-c1cc(N2CCN(C[C@H]3CC[C@H](NS(=O)(=O)CC)CC3)CC2)cn2c(C)ncc12)C(C)C [Example 84]
12 | 7.7 | CCN(C(=O)c1cc(F)ccc1-c1cc(C2CN([C@H](CCCN3CCN(C(=O)OC(C)(C)C)CC3)C(C)C)C2)cn2c(C)ncc12)C(C)C [Example 454-1, 4-[(4R)-4-[3-(8-{2-[ethyl(isopropyl)aminoformyl]-4-fluorophenyl}-3-methylimidazo[1,5-a]pyridin-6-yl)azacyclobutan-1-yl]-5-methylhexyl]piperazin-1-tert-butyl carboxylate]
13 | 3.1 | CCN(C(=O)c1cc(F)ccc1-c1cc(C2CN([C@H](CCCN3CCN(C4CC4)CC3)C(C)C)C2)cn2c(C)ncc12)C(C)C [Example 376]
14 | 70.5 | CCN(C(=O)c1cc(F)ccc1-c1cc(C2CCN(C[C@H]3C[C@@H](NS(=O)(=O)CC)C3)C2)cn2c(C)ncc12)C(C)C (stereo partly shown) [Example 103]
15 | 83 | CCN(C(=O)c1cc(F)ccc1-c1cc(C2CN([C@H](CCCN3CCN(C)CC3)C(C)C)C2)cn2c(C)nnc12)C(C)C [Example 360-1, N-ethyl-5-fluoro-2-(3-methyl-6-{1-[(3R)-2-methyl-6-(4-methylpiperazin-1-yl)hexan-3-yl]azacyclobutan-3-yl}-[1,2,4]triazolo[4,3-a]pyridin-8-yl)-N-(isopropyl)benzamide]
16 | 31 | CCN(C(=O)c1cc(F)ccc1-c1cc(C2CN([C@@H](CCCN3CCN(C)CC3)C(C)C)C2)cn2c(C)ncc12)C(C)C [Example 310-1, N-ethyl-5-fluoro-2-(3-methyl-6-{1-[(3S)-2-methyl-6-(4-methylpiperazin-1-yl)hexan-3-yl]azacyclobutan-3-yl}imidazo[1,5-a]pyridin-8-yl)-N-(isopropyl)benzamide]
17 | 15.5 | CC(=O)N1CCC([C@H](C(C)C)N2CC(c3cc(-c4ccc(F)cc4C(=O)N4CCOC[C@H]4C)c4c(F)nc(C)n4c3)C2)CC1 [Example 357-1, 1-{4-[(1S)-1-[3-(1-fluoro-8-{4-fluoro-2-[(3R)-3-methylmorpholin-4-carbonyl]phenyl}-3-methylimidazo[1,5-a]pyridin-6-yl)azacyclobutan-1-yl]-2-methylpropyl]piperidin-1-yl}ethan-1-one]
18 | 11.8 | CCN(C(=O)c1cc(F)ccc1-c1cc(C2CN(C(COC)C(C)C)C2)cn2c(C)ncc12)C(C)C (stereo not shown) [Example 414, N-ethyl-5-fluoro-2-{6-[1-(1-methoxy-3-methylbutan-2-yl)azacyclobutan-3-yl]-3-methylimidazo[1,5-a]pyridin-8-yl}-N-(isopropyl)benzamide]
19 | 7.3 | CC(=O)N1CC2CCC(C1)N2CCC[C@H](C(C)C)N1CC(c2cc(-c3ccc(F)cc3C(=O)N3CCOC[C@H]3C)c3cnc(C)n3c2)C1 [Example 348, 1-{8-[(4R)-4-[3-(8-{4-fluoro-2-[(3R)-3-methylmorpholin-4-carbonyl]phenyl}-3-methylimidazo[1,5-a]pyridin-6-yl)azacyclobutan-1-yl]-5-methylhexyl]-3,8-diazabicyclo[3.2.1]oct-3-yl}ethan-1-one]
20 | 19 | CCC(=O)N1CCC(C(C)N2CC(c3cc(-c4ccc(F)cc4C(=O)N4CCOC[C@H]4C)c4cnc(C)n4c3)C2)CC1 (stereo partly drawn) [Example 319, 1-(4-{1-[3-(8-{4-fluoro-2-[(3R)-3-methylmorpholin-4-carbonyl]phenyl}-3-methylimidazo[1,5-a]pyridin-6-yl)azacyclobutan-1-yl]ethyl}piperidin-1-yl)propan-1-one]
21 | 19 | CCN(C(=O)c1cc(F)ccc1-c1cc(C2CN([C@H](CCCN3CCNC4(COC4)C3)C(C)C)C2)cn2c(C)ncc12)C(C)C [Example 483, N-ethyl-5-fluoro-2-(3-methyl-6-{1-[(3R)-2-methyl-6-{2-oxa-5,8-diazaspiro[3.5]non-8-yl}hexan-3-yl]azacyclobutan-3-yl}imidazo[1,5-a]pyridin-8-yl)-N-(isopropyl)benzamide]
22 | 48 | CCN(C(=O)c1cc(F)ccc1-c1cc(C2CN([C@@H](CCCN3CCN(C(C)=O)CC3)C(C)C)C2)cn2c(C)nc(F)c12)C(C)C [Example 313]
23 | 7.3 | CCN(C(=O)c1cc(F)ccc1-c1cc(C2CN([C@H](CN3C[C@@H](O)[C@H](O)C3)C(C)C)C2)cn2c(C)ncc12)C(C)C [Example 446-1, 2-(6-{1-[(2S)-1-[(3R,4R)-3,4-dihydroxylpyrrolidin-1-yl]-3-methylbutan-2-yl]azacyclobutan-3-yl}-3-methylimidazo[1,5-a]pyridin-8-yl)-N-ethyl-5-fluoro-N-(isopropyl)benzamide]
24 | 24 | Cc1nc(F)c2c(-c3ccc(F)cc3C(=O)N3CCOC[C@H]3C)cc(C3CN([C@@H](C)C4CCN(C(=O)C(F)F)CC4)C3)cn12 [Example 300]
25 | 128 | CCN(C(=O)c1cc(F)ccc1-c1cc(C2CCN(C(=O)[C@H]3N[C@@H]4CC[C@H]3C4)C2)cn2cncc12)C(C)C (stereo partly drawn) [Example 38, 2-(6-{1-[(1R,3S,4S)-2-azabicyclo[2.2.1]heptan-3-carbonyl]pyrrolidin-3-yl}imidazo[1,5-a]pyridin-8-yl)-N-ethyl-5-fluoro-N-(isopropyl)benzamide]
